From ChEMBL document CHEMBL5352460, “Antibacterial activity evaluation of pleuromutilin derivatives with 4(3H)-quinazolinone scaffold against methicillin-resistant Staphylococcusaureus” (Eur J Med Chem, 2023) come the findings set out here.

Molecules are shown by their SMILES. ≈ marks a conversion by molar mass, not a printed value.

Experiment [1] deals with Staphylococcus aureus. Put plainly: microbe, parasite or virus in culture. It is filed as functional. Particulars: time 20 hrs.
A short description of experiment [2]: Antibacterial activity against Salmonella pullorum assessed as inhibition of bacterial growth incubated for 20 hrs by absorbance based analysis. The experiment is classed as functional, Salmonella enterica subsp. enterica serovar Pullorum. The note with it: Salmonella enterica.
Experiment [3] relates to Staphylococcus aureus. Description: microbe, parasite or virus in culture. It is filed as functional. Particulars: ATCC29213, time 20 hrs.
The subject of experiment [4] is Staphylococcus aureus. Description: microbe, parasite or virus in culture. Particulars: ATCC25923, time 20 hrs. The experiment is classed as functional.
Experiment [5] relates to Escherichia coli. Put plainly: microbe, parasite or virus in culture. The experiment is classed as functional. The note with it: ATCC25922, time 20 hrs.
For experiment [6], the system named is Staphylococcus epidermidis. Put plainly: Antibacterial activity against methicillin-resistant Staphylococcus epidermidis assessed as inhibition of bacterial growth incubated for 20 hrs by absorbance based analysis. The experiment is classed as functional.

Consider `C=C[C@]1(C)C[C@@H](OC(=O)CSc2nc3cc(Br)ccc3c(=O)[nH]2)[C@]2(C)[C@H](C)CC[C@]3(CCC(=O)[C@H]32)[C@@H](C)[C@@H]1O`, for which the MIC in experiment [1] is 0.5 µg/mL (≈ 0.81 µM); in experiment [2], above 64 µg/mL; in experiment [3], 0.25 µg/mL (≈ 0.405 µM); in experiment [4], 0.25 µg/mL (≈ 0.405 µM); in experiment [5], above 64 µg/mL; in experiment [6] it was 4 µg/mL (≈ 6.48 µM).

Take `C=C[C@]1(C)C[C@@H](OC(=O)CN2CCN(C(=O)c3nc4ccccc4c(=O)[nH]3)CC2)[C@]2(C)[C@H](C)CC[C@]3(CCC(=O)[C@H]32)[C@@H](C)[C@@H]1O`: the MIC was 0.5 µg/mL (≈ 0.808 µM) in experiment [1]; above 64 µg/mL in experiment [2]; 0.5 µg/mL (≈ 0.808 µM) in experiment [3]; 1 µg/mL (≈ 1.62 µM) in experiment [4]; above 64 µg/mL in experiment [5]; 2 µg/mL (≈ 3.23 µM) in experiment [6].

With `C=C[C@]1(C)C[C@@H](OC(=O)CSc2nc3cccc([N+](=O)[O-])c3c(=O)[nH]2)[C@]2(C)[C@H](C)CC[C@]3(CCC(=O)[C@H]32)[C@@H](C)[C@@H]1O`, the MIC in experiment [1] was 0.25 µg/mL (≈ 0.428 µM); in experiment [2] it was above 64 µg/mL; in experiment [3], 0.25 µg/mL (≈ 0.428 µM); in experiment [4], 0.25 µg/mL (≈ 0.428 µM); in experiment [5] it was above 64 µg/mL; in experiment [6], 4 µg/mL (≈ 6.85 µM).

In the case of `C=C[C@]1(C)C[C@@H](OC(=O)CSc2nc3ccccc3c(=O)n2-c2ccccc2)[C@]2(C)[C@H](C)CC[C@]3(CCC(=O)[C@H]32)[C@@H](C)[C@@H]1O`, the MIC in experiment [1] is 32 µg/mL (≈ 52 µM); in experiment [2], above 64 µg/mL; in experiment [3], 32 µg/mL (≈ 52 µM); in experiment [4] it was 32 µg/mL (≈ 52 µM); in experiment [5], above 64 µg/mL; in experiment [6], 64 µg/mL (≈ 104 µM).

With `C=C[C@]1(C)C[C@@H](OC(=O)CSc2nc3ccccc3c(=O)n2C)[C@]2(C)[C@H](C)CC[C@]3(CCC(=O)[C@H]32)[C@@H](C)[C@@H]1O`, the MIC in experiment [1] was 0.25 µg/mL (≈ 0.452 µM); in experiment [2], above 64 µg/mL; in experiment [3] it was 0.063 µg/mL (≈ 0.114 µM); in experiment [4], 0.125 µg/mL (≈ 0.226 µM); in experiment [5], 64 µg/mL (≈ 116 µM); in experiment [6] it was 0.5 µg/mL (≈ 0.905 µM).

With `C=C[C@]1(C)C[C@@H](OC(=O)CSc2nc3ccc(OC)cc3c(=O)[nH]2)[C@]2(C)[C@H](C)CC[C@]3(CCC(=O)[C@H]32)[C@@H](C)[C@@H]1O`, the MIC was 0.25 µg/mL (≈ 0.44 µM) in experiment [1]; above 64 µg/mL in experiment [2]; 0.125 µg/mL (≈ 0.22 µM) in experiment [3]; 0.25 µg/mL (≈ 0.44 µM) in experiment [4]; above 64 µg/mL in experiment [5]; 4 µg/mL (≈ 7.03 µM) in experiment [6].

Consider `C=C[C@]1(C)C[C@@H](OC(=O)CN2CCN(Cc3nc4ccccc4c(=O)[nH]3)CC2)[C@]2(C)[C@H](C)CC[C@]3(CCC(=O)[C@H]32)[C@@H](C)[C@@H]1O`, for which the MIC in experiment [1] was 2 µg/mL (≈ 3.31 µM); in experiment [2], above 64 µg/mL; in experiment [3], 1 µg/mL (≈ 1.65 µM); in experiment [4] it was 1 µg/mL (≈ 1.65 µM); in experiment [5], above 64 µg/mL; in experiment [6], 2 µg/mL (≈ 3.31 µM).

Turning to `C=C[C@]1(C)C[C@@H](OC(=O)CSc2nc3cc(OC)ccc3c(=O)[nH]2)[C@]2(C)[C@H](C)CC[C@]3(CCC(=O)[C@H]32)[C@@H](C)[C@@H]1O`, the MIC is 0.25 µg/mL (≈ 0.44 µM) in experiment [1]; above 64 µg/mL in experiment [2]; 0.25 µg/mL (≈ 0.44 µM) in experiment [3]; 0.25 µg/mL (≈ 0.44 µM) in experiment [4]; above 64 µg/mL in experiment [5]; 1 µg/mL (≈ 1.76 µM) in experiment [6].

As to `C=C[C@]1(C)C[C@@H](OC(=O)CSc2nc3ccc(C)cc3c(=O)[nH]2)[C@]2(C)[C@H](C)CC[C@]3(CCC(=O)[C@H]32)[C@@H](C)[C@@H]1O`, the MIC in experiment [1] is 0.5 µg/mL (≈ 0.905 µM); in experiment [2] it was above 64 µg/mL; in experiment [3], 0.25 µg/mL (≈ 0.452 µM); in experiment [4], 0.5 µg/mL (≈ 0.905 µM); in experiment [5] it was above 64 µg/mL; in experiment [6], 2 µg/mL (≈ 3.62 µM).

On to `C=C[C@]1(C)C[C@@H](OC(=O)CSc2nc3cccc(F)c3c(=O)[nH]2)[C@]2(C)[C@H](C)CC[C@]3(CCC(=O)[C@H]32)[C@@H](C)[C@@H]1O`, for which the MIC was 0.25 µg/mL (≈ 0.449 µM) in experiment [1]; above 64 µg/mL in experiment [2]; 0.25 µg/mL (≈ 0.449 µM) in experiment [3]; 0.25 µg/mL (≈ 0.449 µM) in experiment [4]; above 64 µg/mL in experiment [5]; 2 µg/mL (≈ 3.59 µM) in experiment [6].

Consider `C=C[C@]1(C)C[C@@H](OC(=O)CSc2nc3cc(F)ccc3c(=O)[nH]2)[C@]2(C)[C@H](C)CC[C@]3(CCC(=O)[C@H]32)[C@@H](C)[C@@H]1O`, for which the MIC in experiment [1] is 0.5 µg/mL (≈ 0.898 µM); in experiment [2], above 64 µg/mL; in experiment [3], 0.25 µg/mL (≈ 0.449 µM); in experiment [4], 0.5 µg/mL (≈ 0.898 µM); in experiment [5], above 64 µg/mL; in experiment [6], 4 µg/mL (≈ 7.19 µM).

For `C=C[C@]1(C)C[C@@H](OC(=O)CSc2nc3cccc(Br)c3c(=O)n2-c2ccccc2)[C@]2(C)[C@H](C)CC[C@]3(CCC(=O)[C@H]32)[C@@H](C)[C@@H]1O`, the MIC in experiment [1], in experiment [2], in experiment [3], in experiment [4], in experiment [5] and in experiment [6] was above 64 µg/mL in each case.

With `C=C[C@]1(C)C[C@@H](OC(=O)CSc2nc3cccc(OC)c3c(=O)[nH]2)[C@]2(C)[C@H](C)CC[C@]3(CCC(=O)[C@H]32)[C@@H](C)[C@@H]1O`, the MIC in experiment [1] was 0.25 µg/mL (≈ 0.44 µM); in experiment [2] it was above 64 µg/mL; in experiment [3], 0.25 µg/mL (≈ 0.44 µM); in experiment [4], 0.25 µg/mL (≈ 0.44 µM); in experiment [5], above 64 µg/mL; in experiment [6] it was 4 µg/mL (≈ 7.03 µM).

As for `C=C[C@]1(C)C[C@@H](OC(=O)CSc2nc3ccc(Br)cc3c(=O)[nH]2)[C@]2(C)[C@H](C)CC[C@]3(CCC(=O)[C@H]32)[C@@H](C)[C@@H]1O`, the MIC was 0.25 µg/mL (≈ 0.405 µM) in experiment [1]; above 64 µg/mL in experiment [2]; 0.25 µg/mL (≈ 0.405 µM) in experiment [3]; 0.25 µg/mL (≈ 0.405 µM) in experiment [4]; above 64 µg/mL in experiment [5]; 2 µg/mL (≈ 3.24 µM) in experiment [6].

Regarding `C=C[C@]1(C)C[C@@H](OC(=O)CSc2nc3ccc(Cl)cc3c(=O)[nH]2)[C@]2(C)[C@H](C)CC[C@]3(CCC(=O)[C@H]32)[C@@H](C)[C@@H]1O`, the MIC was 0.25 µg/mL (≈ 0.436 µM) in experiment [1]; above 64 µg/mL in experiment [2]; 0.25 µg/mL (≈ 0.436 µM) in experiment [3]; 0.25 µg/mL (≈ 0.436 µM) in experiment [4]; above 64 µg/mL in experiment [5]; 1 µg/mL (≈ 1.74 µM) in experiment [6].

`C=C[C@]1(C)C[C@@H](OC(=O)CSc2nc3cc(C)ccc3c(=O)[nH]2)[C@]2(C)[C@H](C)CC[C@]3(CCC(=O)[C@H]32)[C@@H](C)[C@@H]1O`: the MIC in experiment [1] is 0.5 µg/mL (≈ 0.905 µM); in experiment [2], above 64 µg/mL; in experiment [3] it was 0.5 µg/mL (≈ 0.905 µM); in experiment [4], 0.25 µg/mL (≈ 0.452 µM); in experiment [5] it was above 64 µg/mL; in experiment [6], 2 µg/mL (≈ 3.62 µM).

On to `C=C[C@]1(C)C[C@@H](OC(=O)CSc2nc3c(Br)cccc3c(=O)[nH]2)[C@]2(C)[C@H](C)CC[C@]3(CCC(=O)[C@H]32)[C@@H](C)[C@@H]1O`, for which the MIC in experiment [1] was 0.25 µg/mL (≈ 0.405 µM); in experiment [2], above 64 µg/mL; in experiment [3], 0.5 µg/mL (≈ 0.81 µM); in experiment [4], 0.25 µg/mL (≈ 0.405 µM); in experiment [5] it was above 64 µg/mL; in experiment [6], 2 µg/mL (≈ 3.24 µM).

For the compound `C=C[C@]1(C)C[C@@H](OC(=O)CSc2nc3sccc3c(=O)[nH]2)[C@]2(C)[C@H](C)CC[C@]3(CCC(=O)[C@H]32)[C@@H](C)[C@@H]1O`, the MIC in experiment [1] was 0.25 µg/mL (≈ 0.459 µM); in experiment [2] it was above 64 µg/mL; in experiment [3], 0.25 µg/mL (≈ 0.459 µM); in experiment [4], 0.25 µg/mL (≈ 0.459 µM); in experiment [5], 64 µg/mL (≈ 117 µM); in experiment [6], 1 µg/mL (≈ 1.84 µM).
